Bridge positions count the residues as written; N and C are the ends. Ends that are not written are not given here.
Tests used:
[1] = target: human salivary α-amylase (HSA) (Homo sapiens, UniProt P0DUB6); test: Determination of Ki against human saliva α-amylase (Morrison); assay type: biochemical; details: 37 °C, 50 mM sodium phosphate, 100 mM NaCl, pH 7.0; CNPG3 3.3 mM (KM 3.4 mM), nominal [E] 100 nM; 10 min pre-incubation; 405 nm; Morrison fit, competitive mode assumed; mean ± SE (n = 3); read-out: Ki against HSA
Experimental: For a quantitative assessment of tight-binding inhibitor potency, Morrison’s method was applied. This method uses the Morrison quadratic equation (Equation (1)) for fitting inhibitor-response data and determining Ki app as a nonlinear regression parameter. (1) υ/υo=1−([E]+[I]+Kiapp)−([E]+[I]+Kiapp)^2−4[E][I]/2[E]o
Kinetic assays were carried out at 37 °C in 50 mM sodium phosphate and 100 mM sodium chloride (pH 7.0). 2-Chloro-4-nitrophenyl-α-maltotrioside (CNPG3) (Sigma Aldrich, St. Louis, MO, USA) was used as the substrate and the optical absorption of the 2-chloro-4-nitrophenol was measured at 405 nm. Reactions were run with final [CNPG3] = 1 mM ([S]/KM = 1.41, KM = 0.71 mM), nominal [E] = 20 nM for PPA, [CNPG3] = 3.3 mM ([S]/KM = 0.97, KM = 3.4 mM), and nominal [E] = 100 nM for HSA to provide sufficient analytical signal. Inhibitor dilution schemes were optimized considering recommendations in [34].
The enzyme was pre-incubated with the inhibitor for 10 minutes before the addition of substrate which launched the reaction. Reactions were monitored on an xMark microplate spectrophotometer (BioRad, USA) in the kinetic mode for 30 min. The initial linear steady state region provided initial rate values for each inhibitor concentration (υ), along with uninhibited rate values (υo). Measurements were run in triplicate. […]

[2] = test system: Pseudomonas aeruginosa ATCC 27853; test: Antimicrobial activity, agar dilution method; assay type: cell-based; details: 1, 5, 10, 20 µM; 100 µL in 6 mm agar wells; 18 h, 37 °C; clear zone; three independent assays
Experimental: (§1) The antimicrobial activity of r-magnificamide was tested against Gram-positive (Staphylococcus aureus ATCC 21027 and Bacillus subtilis ATCC6633), Gram-negative bacteria (Escherichia coli VKPM B-7935 and Pseudomonas aeruginosa ATCC 27853), and the fungus Candida albicans KMM 455 by the agar dilution method. Microbial strains were taken from the American Type Culture Collection (ATCC), Russian National Collection of Industrial Microorganisms (VKPM), and Collection of Marine Microorganisms (KMM) (Pacific Institute of Bioorganic Chemistry FEB RAS). To obtain a microbial lawn, 0.1 mL of a cell suspension (0.5 × 10^8 cells/mL) was uniformly distributed on agar surface in Petri dishes (15 g/L tryptic soy broth, 2 g/L bacto yeast extract, 1 g/L glucose, and 20 g/L agar for bacteria; for fungi 10 g/L of glucose was added). Wells with a diameter of 6 mm were punched into the agar and filled with 100 µL of the peptide solution at concentrations 1, 5, 10, and 20 µM. The plates were then incubated for 18 h at 37 °C for bacteria, and at 30 °C for the fungus. Minimum inhibitory concentration was determined by measuring the clear zone of inhibition around each well. All assays were performed independently three times.

[3] = test system: Staphylococcus aureus ATCC 21027; test: Antimicrobial activity, agar dilution method; assay type: cell-based; details: 1, 5, 10, 20 µM; 100 µL in 6 mm agar wells; 18 h, 37 °C; clear zone; three independent assays
Experimental: as §1

[4] = test system: Candida albicans KMM 455; test: Antimicrobial activity, agar dilution method; assay type: cell-based; details: 1, 5, 10, 20 µM; 100 µL in 6 mm agar wells; 18 h, 30 °C; clear zone; three independent assays
Experimental: as §1

[5] = test system: Escherichia coli VKPM B-7935; test: Antimicrobial activity, agar dilution method; assay type: cell-based; details: 1, 5, 10, 20 µM; 100 µL in 6 mm agar wells; 18 h, 37 °C; clear zone; three independent assays
Experimental: as §1

[6] = test system: Bacillus subtilis ATCC6633; test: Antimicrobial activity, agar dilution method; assay type: cell-based; details: 1, 5, 10, 20 µM; 100 µL in 6 mm agar wells; 18 h, 37 °C; clear zone; three independent assays
Experimental: as §1

human salivary α-amylase (HSA), sequence (P0DUB6 16-511): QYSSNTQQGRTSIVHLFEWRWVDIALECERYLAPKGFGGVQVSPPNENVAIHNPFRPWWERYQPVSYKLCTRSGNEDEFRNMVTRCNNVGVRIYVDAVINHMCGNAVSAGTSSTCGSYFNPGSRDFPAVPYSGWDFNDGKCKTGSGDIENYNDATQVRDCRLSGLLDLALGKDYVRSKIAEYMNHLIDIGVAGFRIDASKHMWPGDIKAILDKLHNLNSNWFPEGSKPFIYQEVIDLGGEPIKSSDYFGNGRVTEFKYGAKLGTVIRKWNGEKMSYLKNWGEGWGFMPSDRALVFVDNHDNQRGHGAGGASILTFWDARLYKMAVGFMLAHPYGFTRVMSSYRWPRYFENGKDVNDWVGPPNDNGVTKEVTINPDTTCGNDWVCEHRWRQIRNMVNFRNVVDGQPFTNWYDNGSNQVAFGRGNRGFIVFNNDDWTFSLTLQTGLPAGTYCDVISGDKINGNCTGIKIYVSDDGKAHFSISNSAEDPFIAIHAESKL

SEGTSCYIYHGVYGICKAKCAEDMKAMAGMGVCEGDLCCYKTPW (disulfide 6-38, 16-33, 20-39) [r-magnificamide]
Ki [1]: 7.7 ± 1.5 nM
Antimicrobial activity, P. aeruginosa [2]: Not active
Antimicrobial activity, S. aureus [3]: Not active
Antimicrobial activity, C. albicans [4]: Not active
Antimicrobial activity, E. coli [5]: Not active
Antimicrobial activity, B. subtilis [6]: Not active

Reference: publication PMC6835510, “Magnificamide, a β-Defensin-Like Peptide from the Mucus of the Sea Anemone Heteractis magnifica, Is a Strong Inhibitor of Mammalian α-Amylases” (Marine Drugs, 2019)
